The values that follow come from patent US20230357249A1, “ANDROGEN RECEPTOR PROTEIN DEGRADERS WITH A TRICYCLIC CEREBLON LIGAND” (THE REGENTS OF THE UNIVERSITY OF MICHIGAN, priority 2020, published 2023).

The experiment has as its target T1, AR protein (Homo sapiens, UniProt P10275).
T1 construct: endogenous in cells; host or cells: VCaP
T1 sequence (P10275 1-920): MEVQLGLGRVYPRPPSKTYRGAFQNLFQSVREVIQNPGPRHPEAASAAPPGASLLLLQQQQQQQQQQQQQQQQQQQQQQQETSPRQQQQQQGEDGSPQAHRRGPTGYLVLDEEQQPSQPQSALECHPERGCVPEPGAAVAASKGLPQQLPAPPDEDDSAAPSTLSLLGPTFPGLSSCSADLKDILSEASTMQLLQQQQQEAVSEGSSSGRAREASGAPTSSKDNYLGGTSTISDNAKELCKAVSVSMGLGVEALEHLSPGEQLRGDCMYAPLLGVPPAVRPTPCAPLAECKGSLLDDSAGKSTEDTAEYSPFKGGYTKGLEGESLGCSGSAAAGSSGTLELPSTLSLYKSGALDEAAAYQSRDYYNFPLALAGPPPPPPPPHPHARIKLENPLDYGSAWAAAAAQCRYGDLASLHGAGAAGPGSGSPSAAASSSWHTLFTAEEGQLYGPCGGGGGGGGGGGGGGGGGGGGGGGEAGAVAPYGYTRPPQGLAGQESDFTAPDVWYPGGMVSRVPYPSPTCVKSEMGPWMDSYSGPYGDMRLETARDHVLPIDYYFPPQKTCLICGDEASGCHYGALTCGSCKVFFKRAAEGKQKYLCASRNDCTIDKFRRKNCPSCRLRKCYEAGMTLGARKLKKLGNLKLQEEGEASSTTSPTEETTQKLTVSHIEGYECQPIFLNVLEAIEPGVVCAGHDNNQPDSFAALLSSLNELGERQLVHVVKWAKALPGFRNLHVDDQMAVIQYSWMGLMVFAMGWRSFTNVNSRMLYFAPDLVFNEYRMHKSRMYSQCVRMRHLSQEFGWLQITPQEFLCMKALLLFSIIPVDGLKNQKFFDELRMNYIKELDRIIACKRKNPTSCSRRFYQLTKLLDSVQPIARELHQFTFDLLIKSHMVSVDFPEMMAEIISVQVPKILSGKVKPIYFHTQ
Briefly: AR protein degradation in VCaP cells, Western blotting. It is filed as cell-based. Set-up: key to AR protein degradation VCap 10 nM / AR protein degradation VCap 100 nM: A: >90% degradation (24 hr treatment); B: >50% degradation but <90% (24 hr treatment); C: >10% degradation but <50% (24 hr treatment); D: No significant degradation (24 hr treatment). The note with it: 24 hr treatment; for percent AR protein degradation at 0.01 µM / AR protein degradation VCap 10 nM: 10 nM; for percent AR protein degradation at 0.1 µM / AR protein degradation VCap 100 nM: 100 nM. The protocol: The appropriate cell line, e.g., prostate cancer LNCaP, Vcap, or 22RV1 cell line, was treated with Compounds of the Disclosure as indicated. The treated cells were lysed with RIPA buffer. The AR level in the cell lysates was examined by western blotting and a specific AR antibody (ab194196, Abcam, Cambridge, MA 02139) with concentration of 1:20,000. GAPDH was used as a loading control.
Bands were quantified with ImageJ software. The relative numbers of each band obtained from normalization with its corresponding GAPDH level were compared with Prism 8 software. The DC50 values were produced from Prism 8, and the DC90 values were calculated with an equation=Bottom + (Top-Bottom)/(1+10^((LogEC50-X)*HillSlope) based on DC50 and Hillslope values.
The amount of AR protein degradation in VCap and MDA-MB-453 cells caused by representative Compounds of the Disclosure at the concentrations indicated is presented in Table 4, FIG. 1, and FIG. 2.
In general terms: A western blot detects proteins with antibodies after separation by electrophoresis.

`C[C@H]1C[C@H](NC(=O)c2ccc(N3CCC(CN4Cc5cc6c(cc5C4)C(=O)N(C4CCC(=O)NC4=O)C6=O)CC3)cc2)CC[C@H]1Oc1ccc(C#N)c(Cl)c1` (stereo partly shown) [compound 14] came in with a percent AR protein degradation at 0.01 µM of over 90% and a percent AR protein degradation at 0.1 µM of over 90%.

Molecule `N#Cc1ccc(O[C@H]2CC[C@H](NC(=O)c3ccc4c(c3)CCN(CC(=O)N3Cc5cc6c(cc5C3)C(=O)N(C3CCC(=O)NC3=O)C6=O)C4)CC2)cc1Cl` (stereo partly shown) [compound 27, N-((1r,4r)-4-(3-chloro-4-cyanophenoxy)cyclohexyl)-2-(2-(6-(2,6-dioxopiperidin-3-yl)-5,7-dioxo-3,5,6,7-tetrahydropyrrolo[3,4-f]isoindol-2(1H)-yl)-2-oxoethyl)-1,2,3,4-tetrahydroisoquinoline-6-carboxamide] registered a percent AR protein degradation at 0.01 µM of 50 to 90% and a percent AR protein degradation at 0.1 µM of over 90%.

`CC1(C)[C@H](Oc2ccc(C#N)c(Cl)c2)C(C)(C)[C@H]1N1Cc2cc(C(=O)N3CCC(N4Cc5cc6c(cc5C4)C(=O)N(C4CCC(=O)NC4=O)C6=O)CC3)ccc2C1=O` (stereo partly shown) [compound 5] had a percent AR protein degradation at 0.01 µM of 10 to 50% and a percent AR protein degradation at 0.1 µM of 10 to 50%.

The molecule `CN(c1ccc(C#N)c(Cl)c1)C1CCC(NC(=O)c2ccc(N3CCC(N4Cc5cc6c(cc5C4)C(=O)N(C4CCC(=O)NC4=O)C6=O)CC3)cc2)CC1` (stereo not shown) [compound 19, N-((1r,4r)-4-((3-chloro-4-cyanophenyl)(methyl)amino)cyclohexyl)-4-(4-(6-(2,6-dioxopiperidin-3-yl)-5,7-dioxo-3,5,6,7-tetrahydropyrrolo [3,4-f]isoindol-2(1H)-yl)piperidin-1-yl)benzamide] came in with a percent AR protein degradation at 0.01 µM of over 90% and a percent AR protein degradation at 0.1 µM of over 90%.

The molecule `CN(c1ccc(C#N)c(Cl)c1)[C@H]1CC[C@H](NC(=O)c2ccc(N3CCC(CN4Cc5cc6c(cc5C4)C(=O)N(C4CCC(=O)NC4=O)C6=O)CC3)cn2)CC1` (stereo partly shown) [compound 324] registered a percent AR protein degradation at 0.01 µM of over 90% and a percent AR protein degradation at 0.1 µM of over 90%.

Regarding `C[C@@H]1CN(C(=O)c2ccc(N3CCC(CN4Cc5cc6c(cc5C4)C(=O)N(C4CCC(=O)NC4=O)C6=O)CC3)cc2)C[C@H]1Oc1ccc(C#N)c(Cl)c1` (stereo partly shown) [compound 122], the “AR protein degradation VCap 10 nM” value is “D” and the “AR protein degradation VCap 100 nM” value is reported as “D”.

As to `N#Cc1ccc(O[C@H]2CC[C@H](NC(=O)c3ccc4c(c3)CCN(C(=O)CN3Cc5cc6c(cc5C3)C(=O)N(C3CCC(=O)NC3=O)C6=O)C4)CC2)cc1Cl` (stereo partly shown) [compound 24], the percent AR protein degradation at 0.01 µM was over 90% and the percent AR protein degradation at 0.1 µM was over 90%.

Molecule `CC1(C)[C@H](Oc2ccc(C#N)c(Cl)c2)C(C)(C)[C@H]1N1Cc2cc(C(=O)N3CCC(CCN4Cc5cc6c(cc5C4)C(=O)N(C4CCC(=O)NC4=O)C6=O)CC3)ccc2C1=O` (stereo partly shown) [compound 7] displayed a percent AR protein degradation at 0.01 µM of 50 to 90% and a percent AR protein degradation at 0.1 µM of over 90%.

For the molecule `CC1(C)C(Nc2ccc(C(=O)N3CCC(CN4Cc5cc6c(cc5C4)C(=O)N(C4CCC(=O)NC4=O)C6=O)CC3)cc2)C(C)(C)C1Oc1ccc(C#N)c(Cl)c1` (stereo not shown) [compound 175], the percent AR protein degradation at 0.01 µM is 10 to 50% and the percent AR protein degradation at 0.1 µM lay in the range of 50 to 90%.

In turn, `CN(c1ccc(C#N)c(Cl)c1)[C@H]1CC[C@H](NC(=O)c2ccc(N3CCC(CN4Cc5cc6c(cc5C4)C(=O)N(C4CCC(=O)NC4=O)C6=O)CC3)nn2)CC1` (stereo partly shown) [compound 325] displayed a percent AR protein degradation at 0.01 µM of over 90% and a percent AR protein degradation at 0.1 µM of over 90%.

For `N#Cc1ccc(O[C@H]2CC[C@H](Nc3ccc(C(=O)N4CCC(N5Cc6cc7c(cc6C5)C(=O)N(C5CCC(=O)NC5=O)C7=O)CC4)cc3)CC2)cc1Cl` (stereo partly shown) [compound 10], the “AR protein degradation VCap 10 nM” value was “D” and the percent AR protein degradation at 0.1 µM was in the range of 50 to 90%.

`CN(c1ccc(C#N)c(Cl)c1)[C@H]1CC[C@H](NC(=O)c2ccc(N3CCC(CN4Cc5cc6c(cc5C4)C(=O)N(C4CCC(=O)NC4=O)C6=O)CC3)nc2)CC1` (stereo partly shown) [compound 323] displayed a percent AR protein degradation at 0.01 µM of over 90% and a percent AR protein degradation at 0.1 µM of over 90%.

Turning to `N#Cc1ccc(O[C@H]2CC[C@H](Oc3ccc(C(=O)N4CCC(N5Cc6cc7c(cc6C5)C(=O)N(C5CCC(=O)NC5=O)C7=O)CC4)cc3)CC2)cc1Cl` (stereo partly shown) [compound 11], the “AR protein degradation VCap 10 nM” value is “D” and the “AR protein degradation VCap 100 nM” value is “D”.

Turning to `N#Cc1ccc(OC2CCC3(CC2)CC(NC(=O)c2ccc(N4CCC(CN5Cc6cc7c(cc6C5)C(=O)N(C5CCC(=O)NC5=O)C7=O)CC4)cc2)C3)cc1Cl` (stereo not shown) [compound 125], the “AR protein degradation VCap 10 nM” value was “D” and the percent AR protein degradation at 0.1 µM lay in the range of 10 to 50%.

`CN(c1ccc(C#N)c(Cl)c1)[C@H]1CC[C@H](NC(=O)c2ccc([C@H]3CC[C@H](CN4Cc5cc6c(cc5C4)C(=O)N(C4CCC(=O)NC4=O)C6=O)CC3)cn2)CC1` (stereo partly shown) [compound 313]: the percent AR protein degradation at 0.01 µM is over 90% and the percent AR protein degradation at 0.1 µM is over 90%.

With `C[C@H]1C[C@@H](NC(=O)c2ccc(N3CCC(CN4Cc5cc6c(cc5C4)C(=O)N(C4CCC(=O)NC4=O)C6=O)CC3)cc2)CC[C@@H]1Oc1ccc(C#N)c(Cl)c1` (stereo partly shown) [compound 15], the percent AR protein degradation at 0.01 µM was over 90% and the percent AR protein degradation at 0.1 µM is over 90%.

Molecule `N#Cc1ccc(O[C@H]2CC[C@H](NC(=O)c3ccc4c(c3)CCN(CC(=O)N3CCc5cc6c(cc5C3)C(=O)N(C3CCC(=O)NC3=O)C6=O)CC4)CC2)cc1Cl` (stereo partly shown) [compound 29] had a percent AR protein degradation at 0.01 µM of 50 to 90% and a percent AR protein degradation at 0.1 µM of over 90%.

`N#Cc1ccc(O[C@H]2CC[C@H](NC(=O)c3ccc(N4CC(CN5Cc6cc7c(cc6C5)C(=O)N(C5CCC(=O)NC5=O)C7=O)C4)cc3)CC2)cc1Cl` (stereo partly shown) [compound 21] came in with a percent AR protein degradation at 0.01 µM of 50 to 90% and a percent AR protein degradation at 0.1 µM of over 90%.

Take `CN(c1ccc(C#N)c(Cl)c1)[C@H]1CC[C@H](NC(=O)c2ccc(N3CCC(CN4Cc5cc6c(cc5C4)C(=O)N(C4CCC(=O)NC4=O)C6=O)CC3)cc2)CC1` (stereo partly shown) [compound 20, N-((1r,4r)-4-((3-chloro-4-cyanophenyl)(methyl)amino)cyclohexyl)-4-(4-((6-(2,6-dioxopiperidin-3-yl)-5,7-dioxo-3,5,6,7-tetrahydropyrrolo [3,4-f]isoindol-2(1H)-yl)methyl)piperidin-1-yl)benzamide]: the percent AR protein degradation at 0.01 µM was over 90% and the percent AR protein degradation at 0.1 µM was over 90%.

For the molecule `N#Cc1ccc(N[C@H]2CC[C@H](NC(=O)c3ccc(N4CCC(CN5Cc6cc7c(cc6C5)C(=O)N(C5CCC(=O)NC5=O)C7=O)CC4)cc3)CC2)cc1Cl` (stereo partly shown) [compound 18], the percent AR protein degradation at 0.01 µM was 50 to 90% and the percent AR protein degradation at 0.1 µM is over 90%.

As to `CN(c1ccc(C#N)c(Cl)c1)[C@H]1CC[C@H](NC(=O)c2ccc(CN3CCC(C(=O)N4Cc5cc6c(cc5C4)C(=O)N(C4CCC(=O)NC4=O)C6)CC3)cc2)CC1` (stereo partly shown) [compound 326], the percent AR protein degradation at 0.01 µM was over 90% and the percent AR protein degradation at 0.1 µM is over 90%.

In the case of `CN(c1ccc(C#N)c(Cl)c1)[C@H]1CC[C@H](NC(=O)c2ccc(N3CCN(CC(=O)N4Cc5cc6c(cc5C4)C(=O)N(C4CCC(=O)NC4=O)C6)CC3)cc2)CC1` (stereo partly shown) [compound 327, N-((1r,4r)-4-((3-Chloro-4-Cyanophenyl)(Methyl)Amino)Cyclohexyl)-4-(4-(2-(6-(2,6-Dioxopiperidin-3-Yl)-5-Oxo-3,5,6,7-Tetrahydropyrrolo[3,4-F]Isoindol-2(1h)-Yl)-2-Oxoethyl)Piperazin-1-Yl)Benzamide], the percent AR protein degradation at 0.01 µM is over 90% and the percent AR protein degradation at 0.1 µM was over 90%.

Take `N#Cc1ccc(O[C@H]2CC[C@H](Nc3ccc(C(=O)N4CCC(CN5Cc6cc7c(cc6C5)C(=O)N(C5CCC(=O)NC5=O)C7=O)CC4)cc3)CC2)cc1Cl` (stereo partly shown) [compound 9]: the “AR protein degradation VCap 10 nM” value was “D” and the percent AR protein degradation at 0.1 µM fell in the range of 50 to 90%.
